Laboratory results taken from article PMC6856039 (Investigational New Drugs, 2019).

Test system: Japanese patients with advanced EGFR mutation-positive NSCLC
Assay: Phase I study: dose-limiting toxicities, adverse drug reactions, tolerability
Type: in vivo, human
Method: This was an open-label, non-randomized, dose escalation phase I study conducted between December 14, 2015 and July 7, 2016 at 12 centers in Japan. The study was conducted in three phases (dose escalation phase, expansion phase, and extension phase), and the design is shown in Supplementary Fig. 1 (Online Resource 1). […] In patients who received the BID regimen, the administration interval was ≥10 h.
The first phase was the dose escalation phase conducted according to a 3 + 3 design, with a minimum of three patients treated at each dose level. […] The dosing rationale was derived from a 4-weeks repeated oral-dose toxicology study in monkeys. […] If none of the initial three patients treated within a dose level experienced a dose-limiting toxicity (DLT) during Cycle 1, the dose was escalated to the next level. […] If none of the three additional patients experienced DLTs after all of them completed Cycle 1, the dose was escalated to the next level. If at least one of the additional three patients developed a DLT, then the dose escalation was stopped and at least six evaluable patients were enrolled at the previous dose level to establish the maximum tolerated dose (MTD). The maximum dose level was defined as Dose Level 9 (150 mg/day). Based on safety and PK results, the dosing schedule could be changed to a BID regimen.
AEs were evaluated and graded according to the National Cancer Institute Common Terminology Criteria for Adverse Events Version 4.03. DLTs were also evaluated and defined as hematologic toxicity (Grade 4 neutropenia lasting >7 days, Grade 4 thrombocytopenia or Grade 3 thrombocytopenia associated with bleeding and requiring blood transfusion, or febrile neutropenia) or non-hematologic toxicity (Grade ≥3 nausea/vomiting uncontrolled by aggressive antiemetic treatment, Grade ≥3 diarrhea lasting >48 h and unresponsive to treatment, Grade ≥3 aspartate aminotransferase/alanine aminotransferase lasting >7 days, corneal disorder worsening by ≥1 grade, or Grade ≥3 other non-hematological toxicity).

C=CC(=O)N[C@H]1CCc2c(-c3cnc4ccccc4c3)c3c(N)ncnc3n2C1 [TAS-121]
ALT increased, ≥G3 (4 mg/day QD, N = 29): 0 n | AST increased, ≥G3 (4 mg/day QD, N = 29): 0 n | Decreased appetite, any grade (4 mg/day QD, N = 29): 0 n | Decreased appetite, ≥G3 (4 mg/day QD, N = 29): 0 n | Diarrhea, any grade (4 mg/day QD, N = 29): 6 n | Diarrhea, ≥G3 (4 mg/day QD, N = 29): 0 n | Dry skin, ≥G3 (4 mg/day QD, N = 29): 0 n | Hemoglobin decreased, ≥G3 (4 mg/day QD, N = 29): 0 n | Hypoalbuminemia, ≥G3 (4 mg/day QD, N = 29): 0 n | Malaise, ≥G3 (4 mg/day QD, N = 29): 0 n | Nausea, ≥G3 (4 mg/day QD, N = 29): 0 n | Pruritus, ≥G3 (4 mg/day QD, N = 29): 0 n | Pyrexia, ≥G3 (4 mg/day QD, N = 29): 0 n | Rash, ≥G3 (4 mg/day QD, N = 29): 0 n | Stomatitis, ≥G3 (4 mg/day QD, N = 29): 0 n | Urticaria, ≥G3 (4 mg/day QD, N = 29): 0 n | Vomiting, ≥G3 (4 mg/day QD, N = 29): 0 n | WBC decreased, ≥G3 (4 mg/day QD, N = 29): 0 n | proportion of patients whose dose was decreased (8 mg/day BID (MTD) group, 7/38): 18.4% | proportion of patients whose treatment was interrupted (8 mg/day BID (MTD) group, 17/38): 44.7% | incidence of discontinuation due to ADRs (8 mg/day BID (MTD), 3/38): 7.9% | AST increased, ≥G3 (8 mg/day BID, N = 38): 0 n | Decreased appetite, ≥G3 (8 mg/day BID, N = 38): 0 n | Dry skin, ≥G3 (8 mg/day BID, N = 38): 0 n | Hypoalbuminemia, ≥G3 (8 mg/day BID, N = 38): 0 n | Malaise, ≥G3 (8 mg/day BID, N = 38): 0 n | Nausea, ≥G3 (8 mg/day BID, N = 38): 0 n | Other embolic and thrombotic events, ≥G3 (8 mg/day BID, N = 38): 0 n | Pruritus, ≥G3 (8 mg/day BID, N = 38): 0 n | Pyrexia, ≥G3 (8 mg/day BID, N = 38): 0 n | Stomatitis, ≥G3 (8 mg/day BID, N = 38): 0 n | WBC decreased, ≥G3 (8 mg/day BID, N = 38): 0 n | ALT increased, ≥G3 (8 mg/day QD, N = 38): 0 n | AST increased, ≥G3 (8 mg/day QD, N = 38): 0 n | Decreased appetite, ≥G3 (8 mg/day QD, N = 38): 0 n | Dry skin, ≥G3 (8 mg/day QD, N = 38): 0 n | Embolic and thrombotic events, any grade (8 mg/day QD, N = 38): 6 n | Hypoalbuminemia, ≥G3 (8 mg/day QD, N = 38): 0 n | Interstitial lung disease, ≥G3 (8 mg/day QD, N = 38): 0 n | Malaise, ≥G3 (8 mg/day QD, N = 38): 0 n | Nausea, any grade (8 mg/day QD, N = 38): 5 n | Nausea, ≥G3 (8 mg/day QD, N = 38): 0 n | Other embolic and thrombotic events, ≥G3 (8 mg/day QD, N = 38): 0 n | Pruritus, ≥G3 (8 mg/day QD, N = 38): 0 n | Rash maculo-papular, any grade (8 mg/day QD, N = 38): 11 n | Stomatitis, ≥G3 (8 mg/day QD, N = 38): 0 n | Urticaria, any grade (8 mg/day QD, N = 38): 5 n | Urticaria, ≥G3 (8 mg/day QD, N = 38): 0 n | Vomiting, ≥G3 (8 mg/day QD, N = 38): 0 n | WBC decreased, any grade (8 mg/day QD, N = 38): 5 n | WBC decreased, ≥G3 (8 mg/day QD, N = 38): 0 n | proportion of patients whose dose was decreased (10 mg/day QD (MTD) group, 7/18): 38.9% | proportion of patients whose treatment was interrupted (10 mg/day QD (MTD) group, 12/18): 66.7% | incidence of discontinuation due to ADRs (10 mg/day QD (MTD), 2/18): 11.1% | AST increased, ≥G3 (10 mg/day QD, N = 18): 0 n | Decreased appetite, ≥G3 (10 mg/day QD, N = 18): 0 n | Diarrhea, ≥G3 (10 mg/day QD, N = 18): 0 n | Dry skin, ≥G3 (10 mg/day QD, N = 18): 0 n | Embolic and thrombotic events, any grade (10 mg/day QD, N = 18): 5 n | Hypoalbuminemia, ≥G3 (10 mg/day QD, N = 18): 0 n | Interstitial lung disease, any grade (10 mg/day QD, N = 18): 0 n | Interstitial lung disease, ≥G3 (10 mg/day QD, N = 18): 0 n | Malaise, ≥G3 (10 mg/day QD, N = 18): 0 n | Nausea, ≥G3 (10 mg/day QD, N = 18): 0 n | Platelet count decreased, any grade (10 mg/day QD, N = 18): 12 n | Pruritus, ≥G3 (10 mg/day QD, N = 18): 0 n | Pyrexia, ≥G3 (10 mg/day QD, N = 18): 0 n | Rash maculo-papular, any grade (10 mg/day QD, N = 18): 0 n | Rash maculo-papular, ≥G3 (10 mg/day QD, N = 18): 0 n | Stomatitis, ≥G3 (10 mg/day QD, N = 18): 0 n | Urticaria, any grade (10 mg/day QD, N = 18): 6 n | WBC decreased, any grade (10 mg/day QD, N = 18): 0 n | WBC decreased, ≥G3 (10 mg/day QD, N = 18): 0 n | ALT increased, any grade (12 mg/day BID, N = 5): 0 n | ALT increased, ≥G3 (12 mg/day BID, N = 5): 0 n | AST increased, any grade (12 mg/day BID, N = 5): 0 n | AST increased, ≥G3 (12 mg/day BID, N = 5): 0 n | Decreased appetite, ≥G3 (12 mg/day BID, N = 5): 0 n | Dermatological toxicity, ≥G3 (12 mg/day BID, N = 5): 0 n | Dry skin, any grade (12 mg/day BID, N = 5): 0 n | Dry skin, ≥G3 (12 mg/day BID, N = 5): 0 n | Embolic and thrombotic events, any grade (12 mg/day BID, N = 5): 0 n | Embolic and thrombotic events, ≥G3 (12 mg/day BID, N = 5): 0 n | Hypoalbuminemia, ≥G3 (12 mg/day BID, N = 5): 0 n | Malaise, ≥G3 (12 mg/day BID, N = 5): 0 n | Nausea, ≥G3 (12 mg/day BID, N = 5): 0 n | Other embolic and thrombotic events, any grade (12 mg/day BID, N = 5): 0 n | Other embolic and thrombotic events, ≥G3 (12 mg/day BID, N = 5): 0 n | Pruritus, any grade (12 mg/day BID, N = 5): 0 n | Pruritus, ≥G3 (12 mg/day BID, N = 5): 0 n | Pulmonary embolism, any grade (12 mg/day BID, N = 5): 0 n | Pulmonary embolism, ≥G3 (12 mg/day BID, N = 5): 0 n | Pyrexia, ≥G3 (12 mg/day BID, N = 5): 0 n | Rash maculo-papular, ≥G3 (12 mg/day BID, N = 5): 0 n | Rash, ≥G3 (12 mg/day BID, N = 5): 0 n | Stomatitis, ≥G3 (12 mg/day BID, N = 5): 0 n
